A word on the Kd: it is the equilibrium constant for the complex coming apart.

Changes are numbered by the printed parent chain. Where no end group is shown, it is not given here.

The results in this text go back to PMC4598324, “Crystal structures of Bbp from Staphylococcus aureus reveal the ligand binding mechanism with Fibrinogen α” (Protein & Cell, 2015).

For assay [1], the target named is Bone sialoprotein-binding protein (Bbp) residues 273-598 (N2 and N3 domains) (S. aureus) (UniProt Q14U76). Put plainly: ITC; 500 μmol/L peptide in the syringe titrated into 50 μmol/L Bbp^273−598 in the cell; 25°C; 200 mmol/L NaCl, 20 mmol/L HEPES pH 7.5; Microcal iTC200. In general terms: In ITC the heat of successive injections is recorded.
In a further assay the target is T1, Bbp^273−598 (Staphylococcus aureus, UniProt Q14U76).
T1 construct: covering residues Asn^273–Pro^598 of Bbp from S. aureus; GST (cleaved; GPLGS remains at the N-terminus) (N, cleaved yes); made in house; host or cells: Escherichia coli BL21
T1 sequence (Q14U76 273-598): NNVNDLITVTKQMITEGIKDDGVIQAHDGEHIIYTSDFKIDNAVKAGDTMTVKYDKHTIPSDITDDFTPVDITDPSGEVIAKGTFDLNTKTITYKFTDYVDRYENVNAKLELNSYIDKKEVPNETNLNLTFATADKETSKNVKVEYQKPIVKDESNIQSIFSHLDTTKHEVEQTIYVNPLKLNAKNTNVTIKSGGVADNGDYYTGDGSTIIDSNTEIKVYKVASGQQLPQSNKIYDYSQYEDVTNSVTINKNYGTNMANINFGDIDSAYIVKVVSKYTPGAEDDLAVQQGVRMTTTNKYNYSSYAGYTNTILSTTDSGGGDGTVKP
Briefly: Isothermal titration calorimetry (ITC), Fg α^561−575 titrated into Bbp^273−598. It is filed as binding. Particulars: 25°C, Microcal iTC200, cell 50 μmol/L Bbp^273−598, syringe 500 μmol/L peptide, 200 mmol/L NaCl, 20 mmol/L HEPES pH 7.5, first peak not used for analysis. An excerpt: (§1) The fragment of the Bbp gene (corresponding to 273–598 aa) was amplified using S. aureus ATCC 25923 genomic DNA by PCR. The gene fragments of mutated proteins Bbp^T582A and Bbp^L584A followed the same protocol. After digestion with BamHI and XhoI (NEB), the amplified fragments were cloned into the prokaryotic expression vector pGEX-6p-1 (GE Healthcare Life Sciences) to produce the GST-Bbp fusion protein and were confirmed by DNA sequencing. The recombinant protein was expressed in Escherichia coli strain BL21 with a high yield.
The recombinant protein was firstly purified by GST-affinity column and digested with PreScission protease overnight. The eluant was collected and concentrated for further purification using gel filtration chromatography (Superdex-200 column, GE Healthcare) in buffer containing 20 mmol/L HEPES pH 7.5, 200 mmol/L NaCl, 2 mmol/L DTT on the FPLC system (GE Healthcare Life Sciences). The proteins in every step of purification were analyzed by SDS-PAGE.
(§2) The peptide corresponding to the fibrinogen α^561−575 was synthesized as previously described (Vazquez et al., [2011]).
ITC experiments were carried out at 25°C using a Microcal iTC200 instrument (GE Healthcare). […] The data were fitted and analyzed using the Origin 7 software package (Microcal).

The next assay concerns the target T2, Bbp^T582A (Staphylococcus aureus, UniProt Q14U76, T582A).
T2 construct: The fragment of the Bbp gene (corresponding to 273–598 aa) was amplified; GST (pGEX-6p-1) (N); made in house; host or cells: Escherichia coli BL21
T2 sequence (Q14U76 273-598 T582A): T1 sequence (Q14U76 273-598) with T310A
Put plainly: Surface plasmon resonance (SPR), immobilized mutant T582A. Particulars: BIAcore T200, T582A mutant immobilized on CM5 chip (3375RU), peptide 62.5 to 0.976 μmol/L in 200 mmol/L NaCl, 20 mmol/L HEPES (pH 7.5), 30 μL/min, binding 60 s, dissociation 120 s.
From the text: (§3) Figure 5 SPR analyses of the interactions between Bbp ^273−598 WT and mutants (T582A and L584A) and the Fg α ^561−575 (A–C), respectively. The proteins were immobilized on a BIA-core sensor chip.
as §1, §2
(§4) The interaction affinities between Fg α^561−575 and Bbp^273−598 protein were conducted by surface plasmon resonance (SPR) using BIAcore T200 instrument (GE Healthcare). The wild type Bbp^273−598 protein and two mutants were immobilized, respectively, on a CM5 sensor chip in 10 mmol/L sodium acetate, pH 4.5. The immobilization level was 3375RU. The synthetic peptide in 200 mmol/L NaCl and 20 mmol/L HEPES (pH 7.5) was injected on the protein-coated surface at various concentrations at 30 μL/min. The binding and dissociation was 60 s and 120 s, respectively.
(In SPR one partner is held on a chip, and binding of the other changes the refractive index at the surface.)

For another assay, the target named is T3, Bbp^L584A (Staphylococcus aureus, UniProt Q14U76, L584A).
T3 construct: The fragment of the Bbp gene (corresponding to 273–598 aa) was amplified; GST (pGEX-6p-1) (N); made in house; host or cells: Escherichia coli BL21
T3 sequence (Q14U76 273-598 L584A): T1 sequence (Q14U76 273-598) with L312A
Briefly: Surface plasmon resonance (SPR), immobilized mutant L584A. Particulars: BIAcore T200, L584A mutant immobilized on CM5 chip (3375RU), peptide 62.5 to 0.976 μmol/L in 200 mmol/L NaCl, 20 mmol/L HEPES (pH 7.5), 30 μL/min, binding 60 s, dissociation 120 s.
From the text: as §3, §1, §2, §4

In assay [2] the target is T4, Bone sialoprotein-binding protein (Bbp) residues 273-598 (N2 and N3 domains) (S. aureus, UniProt Q14U76 273-598).
T4 chain: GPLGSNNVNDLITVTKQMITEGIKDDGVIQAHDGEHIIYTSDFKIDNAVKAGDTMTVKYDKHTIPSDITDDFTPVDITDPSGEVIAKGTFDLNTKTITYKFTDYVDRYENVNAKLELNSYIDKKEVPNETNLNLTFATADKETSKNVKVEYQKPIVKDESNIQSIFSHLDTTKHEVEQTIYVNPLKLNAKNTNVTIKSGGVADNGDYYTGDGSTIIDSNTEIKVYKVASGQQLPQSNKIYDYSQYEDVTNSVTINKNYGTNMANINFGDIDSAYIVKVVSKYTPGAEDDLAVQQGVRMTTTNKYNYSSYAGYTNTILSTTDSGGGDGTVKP
Briefly: SPR.

Molecule “Fibrinogen α chain peptide, residues 561-575” yielded a Kd in assay [1] of 290 nM.

Take SKQFTSSTSYNRGDS [Fg α^561−575]: the Kd was 290 nM at Bbp^273−598, 537 nM on Bbp^T582A and 456 nM on Bbp^L584A.

The molecule SKQFTSSTSYNRGDS [Fibrinogen α chain peptide, residues 561-575] registered a dissociation constant (Kd) in assay [2] of 1620 nM.
